In patent publication US9121847B2, “Three-dimensional microfluidic platforms and methods of use thereof” (Massachussetts Institute of Technology, priority 2008, dated 2015):
Where two headings read alike, the source gives them in different places. Blank lines part the entries; values can stand above or below the substance they belong to.

Columns and labels:
[1] = system: human dermal microvascular endothelial cells (HMVEC); conditions: for relative normalized length and area change of cell migration: collagen gel polymerized at pH 7.4
Experimental: Endothelial cell culture. The cell suspension media was prepared with 2×10^6 cells/mL and filled into the cell culturing channel. After filling, the device was kept in the incubator for 30 minutes for cells to settle down and attach on the substrate before the medium was replaced. The cell attachments duration ranges from 30 minutes to several hours depending on the cell types. Human dermal microvascular endothelial cells (HMVEC) were commercially obtained (Lonza, N.J.) and expanded with endothelial growth media (EGM-2MV; Lonza, N.J.) on regular culture flasks pre-coated with collagen I (BD Biosciences, MA) for no more than 9 passages. Recombinant human vascular endothelial growth factor (VEGF; R&D Systems, MN) was mixed with cell culturing media with working concentration of 20 ng/mL and then was filled into the condition channel to generate gradient.
Measuring and quantification of cell migration. The device was kept in incubator containing 5% CO2 at 37° C. and cell migration was monitored by phase contrast microscopy (Nikon Instruments, NY) daily. The length and area of migrated cell outlines were measured by ImageJ. Immunofluorescence staining was performed to visualize the final cell migration result. Actin filaments and nuclei were stained with Rhodamine-Phalloidin (Sigma-Aldrich, Switzerland) and DAPI (Sigma-Aldrich, Switzerland), respectively.
Quantified chemotaxis experiments with endothelial cells. […] Vascular Endothelial Growth Factor-A (VEGF), a known stimulant of endothelial cell migration^23,24 was applied to the condition channel, generating a VEGF gradient in gel scaffold between the cell channel and the condition channel. The control channel was filled with normal cell culture medium without VEGF as a control. […] Length and area changes of migrating cells into collagen scaffolds of different stiffness (pH 7.4 and pH 11) were observed and quantified over several days.
Cells were fixed after 6 days of culture with 5 days of VEGF gradient application, and stained by Rhodamine-Phalloidin and DAPI. White dotted lines indicate the outlines of gel scaffold and small rectangles in scaffold indicate the PDMS posts of 150 μm×150 μm. “0.2%” indicates a collagen concentration of 2.0 mg/mL. […] FIG. 20D is a graph of normalized relative length of migrated cells in the collagen gel scaffold polymerized at pH 7.4 with concentration of 2.0 mg/mL. ‘No VEGF’ serves as the negative control without VEGF gradient. VEGF was applied daily for various durations. ‘VEGF at day 1’ means that VEGF was first applied 1 day after cell seeding. VEGF at day 2 or 3 means VEGF was first applied 2 or 3 days after cell seeding. The relative length is calculated as the difference from the control side. FIG. 20E is a graph of normalized relative area of migrated cells in the collagen gel scaffold polymerized at pH 7.4 with concentration of 2.0 mg/mL. FIGS. 20F and G are graphs of normalized relative length and area of migrated cells in the collagen gel scaffold polymerized at pH 11.0 with concentration of 2.0 mg/mL. All graphs made by average of the value in 4 devices with n=8 (total 8 scaffolds) under one condition.
To evaluate the sensitivity of this assay, VEGF was applied to the condition channel 1, 2 or 3 days after cell seeding. […] For the normalized values, the measured data were normalized to their own baseline data at the initial time point (Eq. 1). Relative normalized values were assessed as the difference between the normalized data of the condition side and the control side. […]

[2] = Dextran diffusion from condition channel to cell channel through collagen gel scaffold, three-channel device; format: physicochemical; conditions: 40 kDa dextran; for time of initial diffusion from condition channel through scaffold to cell channel: 0.5 μg/mL, collagen 2.0 mg/mL polymerized at pH 7.4
Excerpt: Media exchange, dextran diffusion experiments and flow application. The filled media should be kept as droplets on inlets and outlets to avoid evaporation of the media. Aspirating an existing droplet and adding a new droplet of media on one side can generate micro flow due to capillary force to replace the old media in the channel with minimal shear stress on the cells. To apply mechanical angiogenic factors such as fluid shear stress or pressure gradient, fluidic circuits consisting of tubes and pumps can be connected to inlets and outlets of the device to apply precisely controlled flow. […] The diffusion profile was taken by fluorescence microscope (Nikon Instruments, NY) and analyzed by Matlab to get the intensity graph from images. […] Stable and linear gradient was achieved and maintained for several hours. […] The collagen scaffold used had 2.0 mg/mL concentration polymerized at pH 7.4.
Equilibrium was established after several hours and a linear concentration profile was maintained for 10 hours.

U87MG cells = assay: Microfluidic chemotaxis evaluation of U87MG cells with hEGF gradient; format: cell-based, human; conditions: 20 or 200 ng/mL hEGF in condition channel; collagen scaffold
[3] = collagen scaffolds polymerized at pH 11.0 (stiff gels)

Substance: VEGF
relative normalized length and area change of cell migration ([1]; VEGF added 3 days after cell seeding): did not | relative normalized length and area change of cell migration ([1]; VEGF applied 1 day after cell seeding): induced cell migration | relative normalized length and area change of cell migration ([1]; VEGF applied 2 days after cell seeding): induced cell migration | relative normalized values of the area change [1, 3]: too small to be detected | relative normalized values of the length change [1, 3]: significant differences of cell migration

time of initial diffusion from condition channel through scaffold to cell channel [2]: 30 min | time of initial diffusion from condition channel through scaffold to cell channel ([2]; listed as Dextran): ≤ 30 min | duration for which linear concentration profile was maintained ([2]; collagen gel scaffold, after equilibrium): 10 h
Substance: dextran

Substance: hEGF: human epidermal growth factor (NSDSECPLSHDGYCLHDGVCMYIEALDKYACNCVVGYIGERCQYRDLKWWELR; UniProt P01133 971-1023, looked up)
migration speed of U87MG cells, condition side vs control side (U87MG cells): higher than that of the control side
